Patent EP3693740A1, “IMPROVED DITHIOCARMABATE BASED COMPOUNDS, THERAPIES AND DIAGNOSTICS” (Deutsches Krebsforschungszentrum, Stiftung des öffentlichen …, priority 2019, dated 2020)

Key:
TRXR1 [1] = biological target: T1, TRXR1 (Homo sapiens, UniProt Q16881); conditions: inhibitors pre-incubated with TRXR1 before addition of TRX1
Source text: The mode of inhibition was further characterized by investigating the effect of substrate competition.

TRXR1 [2] = biological target: T1, TRXR1
[3] = test system: peroxides (most likely H2O2); experiment: Peroxide quantification with ROS Glo probe (boronate-caged luciferin precursor); type: cell-based
Source text: Gold(I) complexes have been previously reported to induce pro-oxidative effects in tumour cells.

[4] = biological target: truncated form of TRXR1, lacking the Sec (TRXR1ΔSec) (Homo sapiens, UniProt Q16881)
truncated form of TRXR1, lacking the Sec (TRXR1ΔSec), sequence (Q16881 151-647 limits assumed, stated change not applied): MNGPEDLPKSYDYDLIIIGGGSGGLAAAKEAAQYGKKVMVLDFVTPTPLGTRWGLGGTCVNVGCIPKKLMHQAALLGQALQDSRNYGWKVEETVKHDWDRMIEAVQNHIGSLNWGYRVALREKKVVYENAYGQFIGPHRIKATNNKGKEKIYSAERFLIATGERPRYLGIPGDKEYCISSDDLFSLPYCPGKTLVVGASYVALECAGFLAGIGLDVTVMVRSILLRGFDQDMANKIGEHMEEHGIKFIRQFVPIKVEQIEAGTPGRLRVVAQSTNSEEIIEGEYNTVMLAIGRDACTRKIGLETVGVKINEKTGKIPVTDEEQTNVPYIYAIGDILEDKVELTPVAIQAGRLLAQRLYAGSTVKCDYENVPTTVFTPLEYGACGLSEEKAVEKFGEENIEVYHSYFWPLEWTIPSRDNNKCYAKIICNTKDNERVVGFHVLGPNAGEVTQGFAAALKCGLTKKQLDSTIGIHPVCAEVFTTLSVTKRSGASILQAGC
Source text: The present invention will now be further described in the following examples with reference to the accompanying figures and sequences, nevertheless, without being limited thereto. For the purposes of the present invention, all references as cited herein are incorporated by reference in their entireties.

roGFP2-Orp1 = experiment: Oxidation of the genetically encoded H2O2 probe roGFP2-Orp1 (cytoplasmic and mitochondrial); type: cell-based; conditions: for reversibility of probe oxidation: concentrations below the EC50 of DKFZ-608
TRXR1 [5] = biological target: T1, TRXR1; remark: listed apart in the source
SCLC cell line H209 = experiment: Induction of apoptotic cell death; type: cell-based
Source text: Treatment with DKFZ-608 caused morphological changes of the nucleus reminiscent of apoptosis (Figure 1A). […] The inventors then investigated the possible involvement of apoptotic mechanisms in the SCLC cell line H209. […] It was also investigated whether alternative cell death mechanisms like ferroptosis, necroptosis or entosis contribute to the cytotoxicity of DKFZ-608 on SCLC. Inhibitors of those cell death programs were, however, not able to desensitize SCLC cells.

SCLC = SCLC animal model, residual tumour cells after first line therapy; type: in vivo
Source text: In context of the herein disclosed invention it was discovered, that thioredoxin reductase 1 (TRXR1), when inhibited competitively, is a promising drug target for SCLC. DKFZ-608, a homoleptic dithiocarbamate gold complex, reversibly binds TRXR1 in competition with the TRXR1 substrate thioredoxin-1 (TRX1). Consequently, cells expressing low levels of TRX1, like SCLC, are hypersensitive to DKFZ-608, while cells, which express higher levels of TRX1, are resistant. DKFZ-608 causes oxidative stress in the cytoplasm, but not in mitochondria, further contributing to its low toxicity profile.

TRXR1 [6] = biological target: T1, TRXR1; remark: listed apart in the source

T1 sequence (Q16881 151-649 limits assumed): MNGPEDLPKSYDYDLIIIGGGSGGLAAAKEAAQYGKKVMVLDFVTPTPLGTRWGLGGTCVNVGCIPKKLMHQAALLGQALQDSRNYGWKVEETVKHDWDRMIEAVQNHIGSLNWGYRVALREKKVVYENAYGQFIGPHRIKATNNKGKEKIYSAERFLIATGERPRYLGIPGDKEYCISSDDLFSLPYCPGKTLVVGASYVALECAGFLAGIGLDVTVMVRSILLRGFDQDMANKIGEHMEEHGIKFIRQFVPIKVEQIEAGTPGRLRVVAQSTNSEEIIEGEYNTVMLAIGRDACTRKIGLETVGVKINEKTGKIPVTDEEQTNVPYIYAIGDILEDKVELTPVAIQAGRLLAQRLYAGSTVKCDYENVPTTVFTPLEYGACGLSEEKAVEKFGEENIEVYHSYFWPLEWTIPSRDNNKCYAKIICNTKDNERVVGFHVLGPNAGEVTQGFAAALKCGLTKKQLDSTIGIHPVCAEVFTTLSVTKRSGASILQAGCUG

| SMILES | effect of increasing amounts of TRX1 on enzyme inhibition (TRXR1 [1]) | enzymatic activity after dilution of a sample containing TRXR1 and a high concentration of inhibitor (TRXR1 [2]) | increase of peroxides [3] | inhibition of TRXR1ΔSec [4] | reversibility of probe oxidation (roGFP2-Orp1) | oxidation of the mitochondrial roGFP2-Orp1 probe (roGFP2-Orp1) | effect of DTNB substrate increase on dose response curve (TRXR1 [5]) | cytotoxic effect in presence of pan-Caspase inhibitor (SCLC cell line H209; H209) | Annexin-V positive cells and late apoptotic cells (SCLC cell line H209; data not shown) | tumour recurrence (SCLC) | TRXR1 inhibition in cells (TRXR1 [6]; H209 versus A549, TRXR1 inhibition after 100min) | dose response curves upon induced overexpression of TRX1 (TRXR1 [6]; SCLC line H69) |
| --- | --- | --- | --- | --- | --- | --- | --- | --- | --- | --- | --- | --- |
| CC[P+](CC)(CC)[Au-][S][C@@H]1O[C@H](COC(C)=O)[C@@H](OC(C)=O)[C@H](OC(C)=O)[C@H]1OC(C)=O [auranofin, reference compound] | an effect not observed | this was not the case | induced fast and strong increase of peroxides | able to repress the activity of the truncated enzyme, although to a lesser extent | remains stable | produces the same fast and pronounced increase in probe oxidation as in the cytoplasm | showed no affect with increasing DTNB concentrations | – | – | – | – | – |
| CCN(CC)C1=[S+][Au-][S]C(N(CC)CC)=[S+][Au-][S]1 [DKFZ-608] | increasing amounts of TRX1 reduced enzyme inhibition | resulted in recovery of enzymatic activity | induced fast and strong increase of peroxides | not inhibited | appears to be reversible | did not cause oxidation of the mitochondrial probe | right-shift of the dose response curve | could be reverted by the pan-Caspase inhibitor z-VAD-FMK | increases the amount of Annexin-V positive cells and late apoptotic cells | completely prevents tumour recurrence | more potent inhibition of TRXR1 in the SCLC line H209 as compared to the NSCLC line A549 | rightshift of the dose response curves of cytotoxicity and TRXR1 inhibition |
